Where two headings read alike, the source gives them in different places.
How the values were obtained:
dopamine D1-receptors = target: T1, dopamine D1-receptors (Rattus norvegicus, UniProt P18901); assay: affinity for dopamine D1-receptors by displacement experiments with [3H]-Sch 23390; type: binding
T1 construct: The striata were dissected out, weighed and homogenised in 25 volumes of tris buffer; from tissue; host or cells: rat striatum membranes (Chbb:Thom strain), prepared as for the D2 assay
Description: (§1) Male rats (of the Chbb:Thom strain weighing about 200 g) were killed by a blow to the back of the neck. The brains were removed and dissected on ice. The striata were dissected out, weighed and homogenised in 25 volumes of tris buffer (50 mM tris-HCl, 1 mM EDTA, 5 mM MgCl2 and 1 mM ascorbic acid) for 30 seconds in an Ultra-Turrax at maximum speed, followed by 10 cycles in a Potter-Elvehjem at 1400 rpm. The pellet obtained after centrifuging at 50,000×g at 4° C. for 15 minutes was again taken up in 25 ml of tris buffer and centrifuged under the above conditions. The supernatant was discarded and the pellet obtained was incubated in 25 ml of tris buffer at 37° C. for 30 minutes and then centrifuged again at 50,000×g at 4° C. for 15 minutes. Finally, the pellet obtained was mixed with tris buffer to obtain a homogenate dilution of 1:500 (based on the weight of the striata).
(§2) Displacement curves were obtained from the data using the TOPFIT programming package (G. Heinzel in "Pharmacokinetics During Drug Development: Data Analysis and Evaluation Techniques", G. Bozler and J. M. van Rossum Eds., G. Fischer Verlag, Stuttgart 1982, 207).
7. Determining the affinity for dopamine D1-receptors by displacement experiments with [^3 H1-Sch 23390
The membrane preparation and data analysis were carried out as described for determining the affinity for dopamine D2 - receptors.
1 ml aliquots of the membrane preparation were incubated for 1 hour at ambient temperature with 1 ml of a solution of 0.25 nM [^3 H]-Sch 23390 (2.44 TBq/mmol, Messrs. DuPont NEN) and with increasing concentrations of the test substance (10^-11 to 10^-4 M). Incubation was ended by the addition of 5 ml of ice cold tris buffer and filtration through Whatman GF/B filters. The filters were washed twice, each time with 5 ml of ice cold buffer. The radioactivity of the filters was determined by liquid scintillation measurement in Instagel(R) (Messrs. Canberra Packard).
The non-specific binding was determined in the presence of 10^-6 M (-)-butaclamol (Research Biochemicals Inc.).

alpha-2 receptors = target: T2, alpha-2 receptors (Rattus norvegicus, UniProt P22909); assay: affinity for alpha-2 receptors by displacement experiments with [3H]-clonidine (rat cortex membranes); type: binding; details: read-out: α2-IC50
T2 sequence (P22909 1-465): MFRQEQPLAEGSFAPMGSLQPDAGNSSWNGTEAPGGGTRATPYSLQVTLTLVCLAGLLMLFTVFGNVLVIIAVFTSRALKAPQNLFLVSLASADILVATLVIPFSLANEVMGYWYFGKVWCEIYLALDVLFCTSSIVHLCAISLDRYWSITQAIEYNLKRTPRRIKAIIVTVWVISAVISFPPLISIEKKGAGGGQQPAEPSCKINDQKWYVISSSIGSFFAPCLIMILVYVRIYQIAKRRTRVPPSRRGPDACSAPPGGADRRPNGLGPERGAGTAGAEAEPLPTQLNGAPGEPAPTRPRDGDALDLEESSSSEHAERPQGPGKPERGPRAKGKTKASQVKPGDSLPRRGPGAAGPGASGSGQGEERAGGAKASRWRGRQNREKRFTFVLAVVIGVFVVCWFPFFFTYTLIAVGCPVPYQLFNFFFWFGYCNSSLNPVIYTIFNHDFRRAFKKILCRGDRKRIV
Description: Determination of the affinity for alpha-2 receptors by displacement experiments with [^3 H] clonidine (Modified Method of B. Jarrott, W. J. Louis and R. J. Summers, Biochem. Pharmacol. 27, 141 (1979))
A male rat (Chbb:Thom strain weighing about 200 g) was killed by a blow to the back of the neck. The brain was removed and the cortex dissected out, weighed and homogenised in 25 volumes of tris buffer (50 mM tris- HCl, pH 7.50) for 30 seconds in an Ultra-Turrax at maximum speed, followed by 10° Cycles in a Potter- Elvehjem at 1400 rpm. The homogenised material was combined with tris buffer to obtain a homogenate dilution of 1:50 (based on the weight of the cortex).
1 ml aliquots of the membrane preparation were incubated for three hours at ambient temperature with 1 ml of a solution of 1 nM of [^3 H]-clonidine (2.2 TBq/mmol, Messrs. DuPont NEN) and with increasing concentrations of the test substance (10^-11 to 10^-4 M). Incubation was ended by the addition of 5 ml of ice-cold tris buffer and filtration through Whatman GF/B filters. The filters were washed twice, each time with 5 ml of ice cold buffer. The radioactivity of the filters was determined by liquid scintillation measurement in Instagel(R) (Messrs. Canberra Packard). The non-specific binding was determined in the presence of 10^-5 M of oxymetazoline (Sigma Chemical Co.).

dopamine D2-receptors = dopamine D2-receptors (Rattus norvegicus, UniProt P61169); assay: affinity for dopamine D2-receptors by displacement experiments with [3H]-spiperone (rat striatum membranes); type: binding; details: for Ki: [3H]-spiperone, high-affinity form of the dopamine receptor; for α2-IC50 / D2-Ki: relative affinity for dopamine-D2 receptors compared with α2-adrenoceptors, the higher, the higher the D2/α2 selectivity
Description: 1Determining the affinity for dopamine D2-receptors by displacement experiments with [^3 H]-spiperone (Modified Method of W. Billard et al., Life Sci. 35, 1885 (1984) and D. J. de Vries and P. M. Beart, Eur. J. Pharmacol. 109, 417 (1985))
as §1
1 ml aliquots of the membrane preparation were incubated with 1 ml of a solution of 0.25 nM [^3 H]-spiperone ([…], Messrs. DuPont NEN) and at increasing concentrations of the test substance (10^-11 to 10^-4 M) at ambient temperature for one hour. Incubation was ended by the addition of 5 ml of ice cold tris buffer and filtration using Whatman GF/B filters. The filters were washed twice, each time with 5 ml of ice cold buffer. The radioactivity of the filters was determined by liquid scintillation measurement in Instagel^(R) (Messrs. Canberra Packard). Non-specific binding was determined in the presence of 10^-5 M haloperidol (Sigma Chemical Co.).
as §2

[1] = target: T3, serotonin-1A(5-HT1A) receptors (Rattus norvegicus, UniProt P19327); assay: affinity for serotonin-1A (5-HT1A) receptors by displacement experiments with [3H]-8-OH-DPAT (rat frontal cortex); type: binding
T3 construct: The frontal cortex was dissected out; from tissue; host or cells: rat frontal cortex homogenate (Chbb:Thom strain)
T3 sequence (P19327 1-422): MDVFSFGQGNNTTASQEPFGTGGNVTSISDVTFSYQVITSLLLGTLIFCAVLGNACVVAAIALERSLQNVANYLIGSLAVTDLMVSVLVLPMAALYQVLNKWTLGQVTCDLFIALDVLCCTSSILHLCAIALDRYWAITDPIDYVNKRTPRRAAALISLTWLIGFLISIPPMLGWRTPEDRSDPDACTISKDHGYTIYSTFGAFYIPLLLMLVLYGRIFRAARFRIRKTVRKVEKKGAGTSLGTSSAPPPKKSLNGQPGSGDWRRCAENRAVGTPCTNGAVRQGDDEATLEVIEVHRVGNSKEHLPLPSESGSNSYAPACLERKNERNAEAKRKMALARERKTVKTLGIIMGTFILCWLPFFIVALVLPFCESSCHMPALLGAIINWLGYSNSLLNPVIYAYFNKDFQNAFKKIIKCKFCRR
Description: 3. […] (Method of S. J. Peroutka, J. Neurochem. 47, 529 (1986), modified according to H. Gozlan et al., J. Receptor Research 7. 195 (1987))
A male rat (Chbb:Thom strain weighing about 200 g) was decapitated. The brain was removed and placed in ice-cold buffer (50 mmol/1 tris-HCl plus hydrochloric acid ad pH =7.4 at ambient temperature). The frontal cortex was dissected out; its moist weight was determined. It was homogenised in 40 times its volume of buffer (Polytron, position 6, 10 seconds), then centrifuged for 20 minutes at 45,000×g in the refrigerated centrifuge. The pellet was washed in 100 times its volume of buffer and centrifuged again as described above. The resulting pellet was resuspended in 40 times its volume of buffer and pre-incubated for 10 minutes at 37° C. Sixty times the volume of buffer were added and centrifuging was carried out as above. The resulting pellet was washed with 100 times the volume of buffer and centrifuged as above. The pellet was resuspended in buffer (0.8 ml/10 mg) and briefly homogenised in the Polytron. This homogenised tissue was cooled in ice until ready for incubation.
Incubation was stopped by rapid filtering through Whatman GF/B filters; rinsing was carried out twice, each time with 5 ml of ice cold buffer (Filter Prep, Messrs. Ismatec). The radioactivity of the filters was determined by liquid scintillation measurement.
(§3) Specific binding is obtained from total binding minus non-specific binding.

[2] = target: T4, serotonin-2(5-HT2)-receptors (Rattus norvegicus, UniProt P14842); assay: affinity for serotonin-2 (5-HT2) receptors by displacement experiments with [3H]-spiperone (rat frontal cortex); type: binding
T4 construct: The frontal cortex was dissected out and placed in ice cold 0.32 M saccharose solution; from tissue; host or cells: rat frontal cortex homogenate (Chbb:Thom strain)
Description: as §3
A male rat (Chbb:Thom strain, about 200 g) was decapitated. The brain was removed. The frontal cortex was dissected out and placed in ice cold 0.32 M saccharose solution; its moist weight was determined. It was homogenised in 10 times the volume (0.32 M) of saccharose solution for 1 minute at 800 rpm in a Potter S (made by Braun of Melsungen). The homogenised material was centrifuged for 10 minutes at 1000×g (=3,000 rpm with a rotor 8×38 ml) in a refrigerated centrifuge. The supernatant was decanted off and homogenised (Polytron, position 5, 1 minute); the sediment was discarded. 5 ml (=0.5 g moist weight) of the tissue suspension thus obtained were made up to 40 ml with buffer (50 mm tris-HCl; pH=7.7 at ambient temperature).
0.8 ml of the buffered homogenised tissue (=10 mg moist weight) were incubated with 0.1 ml of a solution of [^3 H]-spiperone (about 0.2 nmol/1 final concentration) and with 0.1 ml of a solution of the test substance (increasing concentration) for 15 minutes at 37° C. (triple measurement). Incubation was stopped by rapid filtering through a Whatman GF/B filter; rinsing was carried out 3 times, each time with 5 ml of ice cold buffer within a maximum of 10 seconds (Filter Prep Messrs. Ismatec). The radioactivity of the filters was determined by liquid scintillation measurement.
The specific binding is obtained from the total binding minus the non-specific binding. The averages of the triple measurements are entered in a system of coordinates as in 1.3. The IC50 value is the concentration which inhibits the specific binding of [^3 H]-spiperone by 50%.

[3] = test system: hypersensitive dopamine receptor; assay: motility triggering in the mouse treated 24 hours earlier with reserpine; type: in vivo; details: Mus musculus, sc; reserpine-treated mice, s.c.; read-out: DLi50 (dosage resulting in 50 running pulses every 5 minutes)
Description: This test determines predominantly agonistic effects on the hypersensitive dopamine receptor.
Male mice are treated 24 hours before the experiment with 5 mg/kg i.p. reserpine. The animals are kept at 25°-30° C. and treated three times with 2 ml of a 5% glucose solution in tyrode s.c. (the first time when the reserpine is given, the second time in the evening of the pre-treatment day and the third time on the morning of the test day).
[…] (The injection volume is usually 0.1 ml/10 g of body weight). 30 minutes later the groups of animals are placed in the observation cages (measuring 42 x 24 x 8 cm) and fitted with an infrared lightbeam in order to measure their activity. The value measured is the frequency with which a group of 6 mice pass through the infra-red beam within 5 minutes ("running pulses/5 minutes"; mean at n=3; mean±s.e.m. at n=6).
3 to 6 groups are tested for each substance.

[4] = [3H]-8-OH-DPAT, rat frontal cortex, read-out: 5-HT1A-Ki

T4 sequence (P14842 whole entry): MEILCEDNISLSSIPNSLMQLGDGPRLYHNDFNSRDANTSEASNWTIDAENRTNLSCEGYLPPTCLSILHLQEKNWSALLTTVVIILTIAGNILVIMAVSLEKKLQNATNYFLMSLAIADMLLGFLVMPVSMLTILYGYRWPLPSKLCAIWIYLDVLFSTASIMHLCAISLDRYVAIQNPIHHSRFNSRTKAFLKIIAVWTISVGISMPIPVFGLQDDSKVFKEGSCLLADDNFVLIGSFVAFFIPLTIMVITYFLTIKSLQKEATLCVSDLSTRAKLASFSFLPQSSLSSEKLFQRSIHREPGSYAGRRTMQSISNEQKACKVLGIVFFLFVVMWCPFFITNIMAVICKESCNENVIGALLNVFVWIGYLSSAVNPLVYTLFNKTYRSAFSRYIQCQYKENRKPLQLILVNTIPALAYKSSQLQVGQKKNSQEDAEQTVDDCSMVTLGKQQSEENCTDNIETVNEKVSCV
Sequence of dopamine D2-receptors (P61169 whole entry): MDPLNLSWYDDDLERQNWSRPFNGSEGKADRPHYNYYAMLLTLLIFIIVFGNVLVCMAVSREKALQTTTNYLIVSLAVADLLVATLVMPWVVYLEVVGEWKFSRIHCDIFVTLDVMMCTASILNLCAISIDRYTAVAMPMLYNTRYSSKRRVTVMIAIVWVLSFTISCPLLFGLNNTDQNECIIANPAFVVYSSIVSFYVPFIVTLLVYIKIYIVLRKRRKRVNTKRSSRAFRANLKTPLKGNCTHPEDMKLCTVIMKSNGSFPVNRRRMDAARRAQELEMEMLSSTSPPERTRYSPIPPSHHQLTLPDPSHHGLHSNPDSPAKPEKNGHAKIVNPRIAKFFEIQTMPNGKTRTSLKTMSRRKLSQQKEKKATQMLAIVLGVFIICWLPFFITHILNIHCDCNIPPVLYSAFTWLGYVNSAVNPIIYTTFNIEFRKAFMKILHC
T1 sequence (P18901 whole entry): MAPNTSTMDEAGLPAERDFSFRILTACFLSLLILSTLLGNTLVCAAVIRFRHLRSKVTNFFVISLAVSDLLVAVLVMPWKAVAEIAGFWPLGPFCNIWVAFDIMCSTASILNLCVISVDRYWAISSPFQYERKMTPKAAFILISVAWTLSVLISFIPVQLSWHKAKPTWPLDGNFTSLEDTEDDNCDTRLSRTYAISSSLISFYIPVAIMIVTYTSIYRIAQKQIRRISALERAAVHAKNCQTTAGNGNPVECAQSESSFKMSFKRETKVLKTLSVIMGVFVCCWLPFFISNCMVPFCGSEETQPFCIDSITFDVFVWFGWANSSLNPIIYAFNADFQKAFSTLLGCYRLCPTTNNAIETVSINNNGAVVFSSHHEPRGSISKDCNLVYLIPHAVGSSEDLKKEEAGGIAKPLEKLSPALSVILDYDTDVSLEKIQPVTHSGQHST

SMILES | IC50 (alpha-2 receptors) [µM] | Ki (dopamine D2-receptors) [µM] | α2-IC50 / D2-Ki (dopamine D2-receptors) | Ki [1, 4] [µM] | Ki [2] [µM] | also measured
Nc1nc2c(s1)CCN(CCc1ccccc1)CC2 [Compound C, 2amino-6-(2phenylethyl)-4,5,7,8-tetrahydro-6H-thiazolo[5,4d]azepine, reference compound] | 5.1 | 0.41 | 12.4 |  |  | Ki (dopamine D1-receptors): 11 µM
Nc1nc2c(s1)CCN(CC=Cc1ccccc1)CC2 [Example 1, 2-Amino-6-cinnamyl-4,5,7,8-tetrahydro-6H-thiazolo-[5,4-d]azepine] |  |  |  | 4.34 | 0.356 | 
Nc1nc2c(s1)CCN(CC1=Cc3ccccc3CC1)CC2 [Example 1b, 2-Amino-6-(1,2-dihydronaphthalen-3-yl-methyl)-4,5,7,8-tetrahydro-6H-thiazolo[5,4-d]azepine] |  |  |  |  |  | Ki (dopamine D1-receptors): 0.8 µM
Nc1nc2c(s1)CCN(CC=Cc1ccsc1)CC2 [Example 4a, 2-Amino-6-(3-(3-thienyl)allyl)-4,5,7,8-tetrahydro-6H-thiazolo[5,4-d]azepin] |  |  |  |  |  | ED (50 running pulses/5 min) [3]: 1.85 mg/kg
Nc1nc2c(s1)CCN(CC#Cc1ccccc1)CC2 [Example 4d, 2-Amino-6-(3-phenyl-2-propyn-1-yl)-4,5,7,8-tetrahydro-6H-thiazolo[5,4-d]azepine] | 0.89 | 0.01 | 89 | 14.2 | 1.8 | 
Nc1nc2c(s1)CCN(CC=Cc1ccc3ccccc3c1)CC2 [Example 4u, 2-Amino-6-(3-(2-naphthyl)allyl)-4,5,7,8-tetrahydro-6H-thiazolo[5,4-d]azepine] | 2.2 | 0.0069 | 318 | 14 | 0.35 | 
Nc1nc2c(s1)CCN(CC=Cc1ccc(-c3ccccc3)cc1)CC2 [Example 4w, 2-Amino-6-(3-(4-biphenyl)allyl)-4,5,7,8-tetrahydro-6H-thiazolo[5,4-d]azepine] | 2.2 | 0.003 | 733 | 36.3 | 1.03 | 
Nc1nc2c(s1)CCN(CC=Cc1ccccc1OCc1ccccc1)CC2 [Example 4x, 2-Amino-6-(3-(2-benzyloxy-phenyl)allyl)-4,5,7,8-tetrahydro-6H-thiazolo[5,4-d]azepine] |  |  |  |  |  | Ki (dopamine D1-receptors): 0.4 µM
Nc1nc2c(s1)CCN(CC=Cc1ccco1)CC2 [Example 8, 2-Amino-6-(3-(2-furyl)allyl)-4,5,7,8-tetrahydro-6H-thiazolo[5,4-d]azepine] |  |  |  |  |  | ED (50 running pulses/5 min) [3]: 0.34 mg/kg
CCCN(CCC)C1CCc2cccc(O)c2C1 (centres unmarked) [Example 8-OH-DPAT, 8-OH-DPAT, reference compound] |  |  |  |  | 2.88 | 
Nc1nc2c(s1)CCN(CCC=Cc1ccccc1)CC2 [Example 8k, 2-Amino-6-(4-phenyl-3-buten-1-yl)-4,5,7,8-tetrahydro-6H-thiazolo[5,4-d]azepine] |  |  |  |  |  | Ki (dopamine D1-receptors): 0.51 µM
Nc1nc2c(s1)CCN(C/C=C\c1ccccc1)CC2 [Example 12b, (Z)-2-Amino-6-(3-phenyl™2-propen-I-yl)-4,5,7,8-tetrahydro-6H-thiazolo[5,4-d]azepine] | 2 | 0.0044 | 450 | 53 | 0.86 | 
Nc1nc2c(s1)CCN(CC1CC1c1ccccc1)CC2 (centres unmarked) [Example 17, 2-Amino-6-(2-phenyl-1-cyclopropyl-methyl)-4,5,7,8-tetrahydro-6H-thiazolo[5,4-d]azepine] |  |  |  | 1.06 | 0.339 | 
O=C(c1ccc(F)cc1)C1CCN(CCn2c(=O)[nH]c3ccccc3c2=O)CC1 [Ketanserine, reference compound] |  |  |  |  |  | Ki [1]: 2.83 µM

Reference: US5068325A, “4,5,7,8-tetrahydro-6H-thiazolo[5,4-d]azepines, their preparation and their use as pharmaceutical compositions” (priority 1988, dated 1991)
